Measured values: US11180462B2, “Microbiocidal oxadiazole derivatives” (SYNGENTA PARTICIPATIONS AG, priority 2015, dated 2021)

Key:
[1] = test system: Puccinia recondita f. Sp. Tritici; assay: Fungicidal activity against Puccinia recondita f. sp. tritici / wheat / leaf disc preventative (brown rust); type: in vivo; details: foliar, 200 ppm in the applied formulation, wheat leaf segments, preventative, compared to untreated control leaf disks, read-out: disease control
Method in brief: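 200 ppm spray on wheat cv. Kanzler leaf segments; spore inoculation +1 day; 19° C., 75% rh, 12 h/12 h light cycle; single rating of % control vs untreated at 7 to 9 days.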

[2] = test system: Puccinia recondita f. Sp. Tritici; assay: Fungicidal activity against Puccinia recondita f. sp. tritici / wheat / leaf disc curative (brown rust); type: in vivo; details: foliar, 24 h, 200 ppm in the applied formulation, wheat leaf segments, curative (applied 1 day after inoculation), compared to untreated control leaf disks, read-out: disease control
Method in brief: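 Inoculate cv. Kanzler segments on agar; hold dark, 19° C, 75% RH. Spray diluted formulated compound at day 1. Incubate 12 h light/12 h dark, same temperature and humidity; score % control vs untreated 6–8 days later.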

Phakopsora Pachyrhizi = assay: Fungicidal activity against Phakopsora pachyrhizi / soybean / leaf disc preventative (Asian soybean rust); type: in vivo; details: foliar, 200 ppm in the applied formulation, soybean leaf disks, compared to untreated control leaf disks, read-out: disease control
Method in brief: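 Scored 12 to 14 days post-application as percent control relative to untreated check discs, rust spores were sprayed under the disc one day after compound treatment. Incubation: 20°C, 75% rh, first 24–36 h in darkness, then 12 h daily light; discs kept on water agar.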

[3] = test system: Glomerella lagenarium (Colletotrichum lagenarium); assay: Fungicidal activity against Glomerella lagenarium (Colletotrichum lagenarium) liquid culture / cucumber / preventative (anthracnose); type: cell-based; details: Colletotrichum orbiculare; 20 ppm in the applied formulation; liquid culture (PDB), growth inhibition measured photometrically after 3 to 4 days; compared to untreated control; read-out: disease control
Method in brief: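 Percent activity against the untreated check was derived from photometric growth measurements made 2 to 7 days after conidia in potato dextrose broth were combined with compound at 20 ppm. Cultures were kept dark at 24 °C and 96% humidity.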

C#CCN(Cc1ccc(-c2noc(C(F)(F)F)n2)cc1)C(=O)CCOC [Compound 1.173, 3-methoxy-N-prop-2-ynyl-N-[[4-[5-(trifluoromethyl)-1,2,4-oxadiazol-3-yl]phenyl]methyl]-propanamide]
≥ 80%: pest or weed control at 200 ppm [1] | pest or weed control at 200 ppm [2] | pest or weed control at 200 ppm (Phakopsora Pachyrhizi) | inhibition of growth at 20 ppm [3]

O=C(N(Cc1ccc(-c2noc(C(F)(F)F)n2)cc1)C1CC1)C1(C(F)(F)F)CC1 [Compound 1.83, N-cyclopropyl-1-(trifluoromethyl)-N-[[4-[5-(trifluoromethyl)-1,2,4-oxadiazol-3-yl]phenyl]methyl]-cyclopropane-carboxamide]
≥ 80%: pest or weed control at 200 ppm [1] | pest or weed control at 200 ppm [2] | pest or weed control at 200 ppm (Phakopsora Pachyrhizi) | inhibition of growth at 20 ppm [3]

CCON(Cc1ccc(-c2noc(C(F)(F)F)n2)cc1)C(=O)CCOC [Compound 1.618, N-ethoxy-3-methoxy-N-[[4-[5-(trifluoromethyl)-1,2,4-oxadiazol-3-yl]phenyl]methyl]-propanamide]
≥ 80%: pest or weed control at 200 ppm [1] | pest or weed control at 200 ppm [2] | pest or weed control at 200 ppm (Phakopsora Pachyrhizi) | inhibition of growth at 20 ppm [3]

CCCN(Cc1ccc(-c2noc(C(F)(F)F)n2)cc1)C(=O)C1(C)COC1 [Compound 1.660, 3-methyl-N-propyl-N-[[4-[5-(trifluoromethyl)-1,2,4-oxadiazol-3-yl]phenyl]methyl]-oxetane-3-carboxamide]
≥ 80%: pest or weed control at 200 ppm [1] | pest or weed control at 200 ppm [2] | pest or weed control at 200 ppm (Phakopsora Pachyrhizi) | inhibition of growth at 20 ppm [3]

CON(C(=O)C1CC1F)C(C)c1ccc(-c2noc(C(F)(F)F)n2)cc1 (stereo not shown) [Compound 1.275, 2-fluoroN-methoxy-N-[1-[4-[5-(trifluoromethyl)-1,2,4-oxadiazol-3-yl]phenyl]ethyl]-cyclopropane-carboxamide]
≥ 80%: pest or weed control at 200 ppm [1] | pest or weed control at 200 ppm [2] | pest or weed control at 200 ppm (Phakopsora Pachyrhizi) | inhibition of growth at 20 ppm [3]

C=C(C)C(=O)N(Cc1ccc(-c2noc(C(F)(F)F)n2)cc1)C1CC1 [Compound 1.122, N-cyclopropyl-2-methyl-N-[[4-[5-(trifluoromethyl)-1,2,4-oxadiazol-3-yl]phenyl]methyl]prop-2-enamide]
≥ 80%: pest or weed control at 200 ppm [1] | pest or weed control at 200 ppm [2] | pest or weed control at 200 ppm (Phakopsora Pachyrhizi) | inhibition of growth at 20 ppm [3]

O=C(C1CCCO1)N(O)Cc1ccc(-c2noc(C(F)(F)F)n2)cc1 (stereo not shown) [Compound 1.770, N-hydroxy-N-[[4-[5-(trifluoromethyl)-1,2,4-oxadiazol-3-yl]phenyl]methyl]-tetrahydrofuran-2-carboxamide]
≥ 80%: pest or weed control at 200 ppm [1] | pest or weed control at 200 ppm [2] | pest or weed control at 200 ppm (Phakopsora Pachyrhizi) | inhibition of growth at 20 ppm [3]

CC1CC1C(=O)N(Cc1ccc(-c2noc(C(F)(F)F)n2)cc1)C(C)C (stereo not shown) [Compound 1.676, N-isopropyl-2-methyl-N-[[4-[5-(trifluoromethyl)-1,2,4-oxadiazol-3-yl]phenyl]methyl]-cyclopropane-carboxamide]
≥ 80%: pest or weed control at 200 ppm [1] | pest or weed control at 200 ppm [2] | pest or weed control at 200 ppm (Phakopsora Pachyrhizi) | inhibition of growth at 20 ppm [3]

CC(C)C(=O)N(Cc1ccc(-c2noc(C(F)(F)F)n2)cc1)CC(F)(F)F [Compound 1.689, 2-methyl-N-(2,2,2-trifluoroethyl)-N-[[4-[5-(trifluoromethyl)-1,2,4-oxadiazol-3-yl]phenyl]methyl]-propanamide]
≥ 80%: pest or weed control at 200 ppm [1] | pest or weed control at 200 ppm [2] | pest or weed control at 200 ppm (Phakopsora Pachyrhizi) | inhibition of growth at 20 ppm [3]

CC(C)C(=O)N(Cc1ccc(-c2noc(C(F)(F)F)n2)cc1)CC1CC1 [Compound 1.206, N-(cyclopropylmethyl)-2-methyl-N-[[4-[5-(trifluoromethyl)-1,2,4-oxadiazol-3-yl]phenyl]methyl]-propanamide]
≥ 80%: pest or weed control at 200 ppm [1] | pest or weed control at 200 ppm [2] | pest or weed control at 200 ppm (Phakopsora Pachyrhizi) | inhibition of growth at 20 ppm [3]

CCN(Cc1ccc(-c2noc(C(F)(F)F)n2)cc1)C(=O)CC#N [Compound 1.510, 2-cyano-N-ethyl-N-[[4-[5-(trifluoromethyl)-1,2,4-oxadiazol-3-yl]phenyl]methyl]-acetamide]
≥ 80%: pest or weed control at 200 ppm [1] | pest or weed control at 200 ppm [2] | pest or weed control at 200 ppm (Phakopsora Pachyrhizi) | inhibition of growth at 20 ppm [3]

COCCNC(=O)N(Cc1ccc(-c2noc(C(F)(F)F)n2)cc1)OC [Compound 3.2, 1-methoxy-3-(2-methoxyethyl)-1-[[4-[5-(trifluoromethyl)-1,2,4-oxadiazol-3-yl]phenyl]methyl]-urea]
≥ 80%: pest or weed control at 200 ppm [1] | pest or weed control at 200 ppm [2] | pest or weed control at 200 ppm (Phakopsora Pachyrhizi) | inhibition of growth at 20 ppm [3]

CCN(Cc1ccc(-c2noc(C(F)(F)F)n2)cc1)C(=O)C1CCCC1 [Compound 1.495, N-ethyl-N-[[4-[5-(trifluoromethyl)-1,2,4-oxadiazol-3-yl]phenyl]methyl]-cyclopentane-carboxamide]
≥ 80%: pest or weed control at 200 ppm [1] | pest or weed control at 200 ppm [2] | pest or weed control at 200 ppm (Phakopsora Pachyrhizi) | inhibition of growth at 20 ppm [3]

CCC(C)N(Cc1ccc(-c2noc(C(F)(F)F)n2)cc1)C(=O)CCCOC (stereo not shown) [Compound 1.408, 4-methoxy-N-sec-butyl-N-[[4-[5-(trifluoromethyl)-1,2,4-oxadiazol-3-yl]phenyl]methyl]-butanamide]
≥ 80%: pest or weed control at 200 ppm [1] | pest or weed control at 200 ppm [2] | pest or weed control at 200 ppm (Phakopsora Pachyrhizi) | inhibition of growth at 20 ppm [3]

C#CCN(Cc1ccc(-c2noc(C(F)(F)F)n2)cc1)C(=O)CCC=C [Compound 1.159, N-prop-2-ynyl-N-[[4-[5-(trifluoromethyl)-1,2,4-oxadiazol-3-yl]phenyl]methyl]-pent-4-enamide]
≥ 80%: pest or weed control at 200 ppm [1] | pest or weed control at 200 ppm [2] | pest or weed control at 200 ppm (Phakopsora Pachyrhizi) | inhibition of growth at 20 ppm [3]

O=C(N(Cc1ccc(-c2noc(C(F)(F)F)n2)cc1)C1CC1)C1(C(F)(F)F)CCC1 [Compound 1.92, N-cyclopropyl-1-(trifluoromethyl)-N-[[4-[5-(trifluoromethyl)-1,2,4-oxadiazol-3-yl]phenyl]methyl]-cyclobutane-carboxamide]
≥ 80%: pest or weed control at 200 ppm [1] | pest or weed control at 200 ppm [2] | pest or weed control at 200 ppm (Phakopsora Pachyrhizi) | inhibition of growth at 20 ppm [3]

C#CCN(Cc1ccc(-c2noc(C(F)(F)F)n2)cc1)C(=O)C1CC1(C)C (stereo not shown) [Compound 1.189, 2,2-dimethyl-N-prop-2-ynyl-N-[[4-[5-(trifluoromethyl)-1,2.4-oxadiazol-3-yl]phenyl]methyl]-cyclopropane-carboxamide]
≥ 80%: pest or weed control at 200 ppm [1] | pest or weed control at 200 ppm [2] | pest or weed control at 200 ppm (Phakopsora Pachyrhizi) | inhibition of growth at 20 ppm [3]

CON(Cc1ccc(-c2noc(C(F)(F)F)n2)cc1)C(=O)C1CCSCC1 [Compound 1.46, N-methoxy-N-[[4-[5-(trifluoromethyl)-1,2,4-oxadiazol-3-yl]phenyl]methyl] tetrahydrothiopyran-4-carboxamide]
≥ 80%: pest or weed control at 200 ppm [1] | pest or weed control at 200 ppm [2] | pest or weed control at 200 ppm (Phakopsora Pachyrhizi) | inhibition of growth at 20 ppm [3]

CC(C)C(=O)N(Cc1ccc(-c2noc(C(F)(F)F)n2)cc1)C1COC1 [Compound 1.738, 2-methyl-N-(oxetan-3-yl)-N-[[4-[5-(trifiuoromethyl)-1,2,4-oxadiazol-3-yl]phenyl]methyl]-propanamide]
≥ 80%: pest or weed control at 200 ppm [1] | pest or weed control at 200 ppm [2] | pest or weed control at 200 ppm (Phakopsora Pachyrhizi) | inhibition of growth at 20 ppm [3]

O=C(C1CCC1)N(O)Cc1ccc(-c2noc(C(F)(F)F)n2)cc1 [Compound 1.761, N-hydroxy-N-[[4-[5-(trifluoromethyl)-1,2,4-oxadiazol-3-yl]phenyl]methyl]-cyclobutane-carboxamide]
≥ 80%: pest or weed control at 200 ppm [1] | pest or weed control at 200 ppm [2] | pest or weed control at 200 ppm (Phakopsora Pachyrhizi) | inhibition of growth at 20 ppm [3]

CN(C)C(=O)N(Cc1ccc(-c2noc(C(F)(F)F)n2)cc1)CC(F)(F)F [Compound 3.26, 1,1-dimethyl-3-(2,2,2-trifluoroethyl)-3-[[4-[5-(trifluoromethyl)-1,2,4-oxadiazol-3-yl]phenyl]methyl]urea]
≥ 80%: pest or weed control at 200 ppm [1] | pest or weed control at 200 ppm [2] | pest or weed control at 200 ppm (Phakopsora Pachyrhizi) | inhibition of growth at 20 ppm [3]

CCC(=O)N(Cc1ccc(-c2noc(C(F)(F)F)n2)cc1)CC(F)(F)F [Compound 1.582, N-(2,2,2-trifluoroethyl)-N-[[4-[5-(trifluoromethyl)-1,2,4-oxadiazol-3-yl]phenyl]methyl]-propanamide]
≥ 80%: pest or weed control at 200 ppm [1] | pest or weed control at 200 ppm [2] | pest or weed control at 200 ppm (Phakopsora Pachyrhizi) | inhibition of growth at 20 ppm [3]
